The assay has as its target T1, hGluR1 flip (Homo sapiens, UniProt P42261).
T1 construct: expressed in transfected cells; host or cells: CHO-K1
As to the kind of experiment: AMPA receptor function-enhancing activity using calcium influx as index. The class given is cell-based. As to conditions: test compound 30 μM with 3 mM glutamic acid; CHO-K1/GluR1 flip/stargazin-expressing cells; 100% = 3 mM glutamic acid + 300 μM cyclothiazide, 0% = 3 mM glutamic acid alone. The text has this: Experimental Example 1 Measurement Method of AMPA Receptor Function-Enhancing Activity of Compound Using Calcium Influx as Index
(1) Construction of Expression Gene
Human GluR^1 flip cDNA was amplified by PCR method using forward primer […] (SEQ ID NO: 1) and reverse primer […] (SEQ ID NO: 2) artificially synthesized using human brain-derived cDNA (BD Bioscience) as a template. The amplified product was digested with restriction enzymes EcoRI, NotI (TAKARA SHUZO CO. LTD.) and incorporated into the same site of pcDNA3.1 (+) (Invitrogen) to construct pcDNA3.1(+)/human GluR1 flip gene. Human stargazin cDNA was amplified by PCR method using forward primer […] (SEQ ID NO: 3) and reverse primer […] (SEQ ID NO: 4) artificially synthesized using human hippocampus cDNA as a template. The amplified product was digested with restriction enzymes XhoI, BamHI (TAKARA SHUZO CO. LTD.) and incorporated into the same site of pcDNA3.1(−) (Invitrogen) to construct pcDNA3.1 Zeo(−)/human stargazing gene.
(2) Construction of GluR1 Flip/Stargazin Expressing Cell
CHO-K1 cells passaged in a culture medium (Ham's F12 medium (Invitrogen) added with 10% inactivated fetal bovine serum (Morgate) and penicillin, streptomycin (Invitrogen)) were detached using 0.05% trypsin and 0.53 mM EDTA (Invitrogen) diluted with D-PBS(−). The detached cells were suspended in a culture medium, and recovered by centrifugation at 1,000 rpm. The recovered cells were re-suspended in D-PBS(−) and added into 0.4 cm electroporation cuvette (BioRad). pcDNA3.1(+)/human GluR1 flip gene (5 μg) and pcDNA3.1 Zeo(−)/human stargazin gene (15 μg) were added, and introduced into CHO-K1 cells under the conditions of 950 μFd, […] and using Gene Pulser II (BioRad). The introduced cells were cultured overnight in a culture medium. The next day, using a selection medium (culture medium added with zeocin (Invitrogen) at 250 μg/mL), the cells were plated in a 96 well plate at 250 cells/well. The clones showing drug resistance were selected, and GluR1 flip/stargazin expression clones were selected by an assay method shown below using calcium influx as an index.
(3) Measurement Method of AMPA Receptor Function-Enhancing Activity of Compound, Using Calcium Influx as an Index
CHO-K1/GluR1 flip/stargazin-expressing cells were plated on a 384 well black bottom transparent plate, and cultured for 2 days in a CO2 incubator (SANYO ELECTRIC Co. Ltd.) at 37° C. The medium of the cell plate was removed. A calcium indicator (Calcium5 Assay Kit, Molecular Devices) was diluted with an assay buffer (HESS (Thermo Fisher Scientific), 0.1% BSA (Merck Millipoer) and 10 mM HEPES (Thermo Fisher Scientific)), and 1.25 mM probenecid (Dojindo Laboratories) was added thereto. The mixture prepared above was added at 30 μL/well (100 μL/well in case of 96 wells) to the well, and the well was left standing in 37° C., CO2 incubator for 1 hr. The cell plate was set in CellLux (PerkinElmer), a mixture (15 μL) (50 μL/well in case of 96 wells) of 9 mM glutamic acid (final concentration 3 mM) diluted with an assay buffer and a test compound (test compound concentration 30 μM) was added thereto, and variation in the amount of fluorescence was measured for 3 min. The variation of fluorescence level of a well added with final concentration 3 mM of glutamic acid and 300 μM cyclothiazide (TOCRIS) was defined as 100%, the variation of fluorescence level of a well added with final concentration 3 mM of glutamic acid alone was defined as 0%, and the activity of the compound was calculated by the following formula. activity (%)=(X−C)/(T−C)×100 • T: variation of fluorescence level of well added with final concentration 3 mM of glutamic acid and 300 μM cyclothiazide • C: variation of fluorescence level of well added with final concentration 3 mM of glutamic acid alone • X: variation of fluorescence level of well added with test compound

T1 sequence (P42261 19-906 isoform P42261-2 limits assumed): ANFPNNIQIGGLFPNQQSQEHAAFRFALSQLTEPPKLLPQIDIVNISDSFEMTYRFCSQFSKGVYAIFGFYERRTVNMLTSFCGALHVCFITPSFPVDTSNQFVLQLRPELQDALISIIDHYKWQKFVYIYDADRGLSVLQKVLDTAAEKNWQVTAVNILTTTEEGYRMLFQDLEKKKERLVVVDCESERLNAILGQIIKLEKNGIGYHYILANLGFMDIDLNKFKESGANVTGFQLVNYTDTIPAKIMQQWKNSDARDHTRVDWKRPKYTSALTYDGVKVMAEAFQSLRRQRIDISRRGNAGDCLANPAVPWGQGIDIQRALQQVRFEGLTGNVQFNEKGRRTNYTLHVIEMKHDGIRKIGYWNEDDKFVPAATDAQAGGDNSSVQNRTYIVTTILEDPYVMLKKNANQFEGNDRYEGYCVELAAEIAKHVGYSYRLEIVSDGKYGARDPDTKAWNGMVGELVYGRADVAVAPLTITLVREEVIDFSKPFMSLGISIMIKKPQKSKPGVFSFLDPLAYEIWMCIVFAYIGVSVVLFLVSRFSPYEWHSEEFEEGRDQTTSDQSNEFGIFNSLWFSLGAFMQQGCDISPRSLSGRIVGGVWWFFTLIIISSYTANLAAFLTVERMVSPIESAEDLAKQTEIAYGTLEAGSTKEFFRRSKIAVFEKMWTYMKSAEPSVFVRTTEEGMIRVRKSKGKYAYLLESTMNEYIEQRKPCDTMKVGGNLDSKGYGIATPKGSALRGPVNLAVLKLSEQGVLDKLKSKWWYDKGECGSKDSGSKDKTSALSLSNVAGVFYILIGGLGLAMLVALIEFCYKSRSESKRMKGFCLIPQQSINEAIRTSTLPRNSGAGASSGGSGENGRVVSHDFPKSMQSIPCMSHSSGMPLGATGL
T1 sequence (Q9Y698 whole entry partner): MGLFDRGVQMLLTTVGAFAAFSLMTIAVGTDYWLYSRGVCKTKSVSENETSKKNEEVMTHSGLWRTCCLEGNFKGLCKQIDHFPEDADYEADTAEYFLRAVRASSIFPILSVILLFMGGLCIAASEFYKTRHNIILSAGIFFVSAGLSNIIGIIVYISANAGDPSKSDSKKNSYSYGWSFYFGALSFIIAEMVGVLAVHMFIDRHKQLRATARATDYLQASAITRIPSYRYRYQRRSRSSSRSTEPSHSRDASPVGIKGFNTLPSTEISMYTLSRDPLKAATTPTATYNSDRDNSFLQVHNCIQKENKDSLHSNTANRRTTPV

Turning to `Cc1c(C(F)(F)F)nc2c(-c3ccc(C(=O)N4CCCOCC4)cc3)cccn2c1=O` [Example 69, 3-methyl-9-(4-(1,4-oxazepan-4-ylcarbonyl)phenyl)-2-(trifluoromethyl)-4H-pyrido[1,2-a]pyrimidin-4-one], the activation at 30 µM was 79.9%. For the compound `N#CC1CCN(C(=O)c2ccc(-c3cccn4c(=O)c(Br)c(C(F)(F)F)nc34)cc2)C1` (centres unmarked) [Example 120, 1-(4-(3-bromo-4-oxo-2-(trifluoromethyl)-4H-pyrido[1,2-a]pyrimidin-9-yl)benzoyl)pyrrolidine-3-carbonitrile], the activation at 30 µM came out at 71.5%. Regarding `Cc1c(C(F)(F)F)nc2c(-c3ccc(C(=O)N4CCC(C#N)C4)cc3)cccn2c1=O` (centres unmarked) [Example 121, 1-(4-(3-methyl-4-oxo-2-(trifluoromethyl)-4H-pyrido[1,2-a]pyrimidin-9-yl)benzoyl)pyrrolidine-3-carbonitrile], the activation at 30 µM came to 84.4%. The same measure, in the same setting: in the case of `CN(C(=O)c1ccc(-c2cccn3c(=O)c(Br)c(C(F)(F)F)nc23)cc1F)C1CCOCC1` [Example 84, 4-(3-bromo-4-oxo-2-(trifluoromethyl)-4H-pyrido[1,2-a]pyrimidin-9-yl)-2-fluoro-N-methyl-N-(tetrahydro-2H-pyran-4-yl)benzamide] it was 102%; in that of `Cc1c(C(F)(F)F)nc2c(-c3ccc(C(=O)N4CCOCC4)cc3)cccn2c1=O` [Example 37, 3-methyl-9-(4-(morpholin-4-ylcarbonyl)phenyl)-2-(trifluoromethyl)-4H-pyrido[1,2-a]pyrimidin-4-one], 74.9%. As to `O=C(c1ccc(-c2cccn3c(=O)cc(C(F)(F)F)nc23)cc1)N1CCC(O)(C(F)(F)F)C1` (centres unmarked) [Example 6, 9-(4-((3-hydroxy-3-(trifluoromethyl)pyrrolidin-1-yl)carbonyl)phenyl)-2 (trifluoromethyl)-4H-pyrido[1,2-a]pyrimidin-4-one], the “hGluR1 flip/30 μM (%)” value is 88.7%. Turning to `CC1(O)CCN(C(=O)c2ccc(-c3cccn4c(=O)cc(C(F)(F)F)nc34)cc2)CC1` [Example 7, 9-(4-((4-hydroxy-4-methylpiperidin-1-yl)carbonyl)phenyl)-2-(trifluoromethyl)-4H-pyrido[1,2-a]pyrimidin-4-one], the activation at 30 µM amounted to 94%. On to `COC1CCN(C(=O)c2ccc(-c3cccn4c(=O)cc(C(F)(F)F)nc34)cc2F)CC1` [Example 89, 9-(3-fluoro-4-((4-methoxypiperidin-1-yl)carbonyl)phenyl)-2-(trifluoromethyl)-4H-pyrido[1,2-a]pyrimidin-4-one], for which the activation at 30 µM is 82.8%.

For `O=C(c1ccc(-c2cccn3c(=O)c(Br)c(C(F)(F)F)nc23)cc1)N1CCc2cccnc21` [Example 65, 3-bromo-9-(4-(2,3-dihydro-1H-pyrrolo[2,3-b]pyridin-1-ylcarbonyl)phenyl)-2-(trifluoromethyl)-4H-pyrido[1,2-a]pyrimidin-4-one], the activation at 30 µM was 74.6%.

Consider `O=C(N[C@H]1CCCOC1)c1ccc(-c2cccn3c(=O)cc(C(F)(F)F)nc23)cc1` [Example 122, 4-(4-oxo-2-(trifluoromethyl)-4H-pyrido[1,2-a]pyrimidin-9-yl)-N-((3S)-tetrahydro-2H-pyran-3-yl)benzamide], for which the activation at 30 µM was determined as 71.4%. For `Cc1c(C(F)(F)F)nc2c(-c3ccc(C(=O)N(C)CCC#N)cc3)cccn2c1=O` [Example 100, N-(2-cyanoethyl)-N-methyl-4-(3-methyl-4-oxo-2-(trifluoromethyl)-4H-pyrido[1,2-a]pyrimidin-9-yl)benzamide], the activation at 30 µM was found to be 89.2%. On the same count and under the same terms, then `O=C(c1ccc(-c2cccn3c(=O)c(Br)c(C(F)(F)F)nc23)cc1F)N1CCCOCC1` [Example 75, 3-bromo-9-(3-fluoro-4-(1,4-oxazepan-4-ylcarbonyl)phenyl)-2-(trifluoromethyl)-4H-pyrido[1,2-a]pyrimidin-4-one], with 99.1%; and `O=C(c1ccc(-c2cccn3c(=O)c(Br)c(C(F)(F)F)nc23)cc1)N1CCC1` [Example 61, 9-(4-(azetidin-1-ylcarbonyl)phenyl)-3-bromo-2-(trifluoromethyl)-4H-pyrido[1,2-a]pyrimidin-4-one], with 77.1%; and `O=C(c1ccc(-c2cccn3c(=O)cc(C(F)(F)F)nc23)cc1)N1CCCC(F)(F)C1` [Example 3, 9-(4-((3,3-difluoropiperidin-1-yl)carbonyl)phenyl)-2-(trifluoromethyl)-4H-pyrido[1,2-a]pyrimidin-4-one], with 74.8%. Same read-out and setting: then `O=C(NCC(F)F)c1ccc(-c2cccn3c(=O)cc(C(F)(F)F)nc23)cc1` [Example 26, N-(2,2-difluoroethyl)-4-(4-oxo-2-(trifluoromethyl)-4H-pyrido[1,2-a]pyrimidin-9-yl)benzamide], with 74.9%; and `CN(CC1(C#N)CC1)C(=O)c1ccc(-c2cccn3c(=O)c(Br)c(C(F)(F)F)nc23)cc1` [Example 118, 4-(3-bromo-4-oxo-2-(trifluoromethyl)-4H-pyrido[1,2-a]pyrimidin-9-yl)-N-((1-cyanocyclopropyl)methyl)-N-methylbenzamide], with 84%. The same measure, in the same setting: then `O=C(NCC(F)(F)F)c1ccc(-c2cccn3c(=O)cc(C(F)(F)F)nc23)cc1F` [Example 43, 2-fluoro-4-(4-oxo-2-(trifluoromethyl)-4H-pyrido[1,2-a]pyrimidin-9-yl)-N-(2,2,2-trifluoroethyl)benzamide], with 84.1%; and `O=C(c1ccc(-c2cccn3c(=O)c(Br)c(C(F)(F)F)nc23)cc1F)N1CCOCC1` [Example 46, 3-bromo-9-(3-fluoro-4-(morpholin-4-ylcarbonyl)phenyl)-2-(trifluoromethyl)-4H-pyrido[1,2-a]pyrimidin-4-one], with 77.3%; and `Cc1c(C(F)(F)F)nc2c(-c3ccc(C(=O)NC4CCOCC4)c(F)c3)cccn2c1=O` [Example 85, 2-fluoro-4-(3-methyl-4-oxo-2-(trifluoromethyl)-4H-pyrido[1,2-a]pyrimidin-9-yl)-N-(tetrahydro-2H-pyran-4-yl)benzamide], with 109%.

Turning to `C[C@@H]1CN(C(=O)c2ccc(-c3cccn4c(=O)c(Br)c(C(F)(F)F)nc34)cc2F)CCO1` [Example 74, 3-bromo-9-(3-fluoro-4-(((2R)-2-methylmorpholin-4-yl)carbonyl)phenyl)-2-(trifluoromethyl)-4H-pyrido[1,2-a]pyrimidin-4-one], the activation at 30 µM is 88.2%.

Turning to `Cc1c(C(F)(F)F)nc2c(-c3ccc(C(=O)N4CCCOCC4)c(F)c3)cccn2c1=O` [Example 76, 9-(3-fluoro-4-(1,4-oxazepan-4-ylcarbonyl)phenyl)-3-methyl-2-(trifluoromethyl)-4H-pyrido[1,2-a]pyrimidin-4-one], the activation at 30 µM turned out to be 93.3%.

Regarding `CN(C(=O)c1ccc(-c2cccn3c(=O)c(Br)c(C(F)(F)F)nc23)cc1F)C1CC1` [Example 94, 4-(3-bromo-4-oxo-2-(trifluoromethyl)-4H-pyrido[1,2-a]pyrimidin-9-yl)-N-cyclopropyl-2-fluoro-N-methylbenzamide], the activation at 30 µM is 94.4%.

As for `CN(CC(F)F)C(=O)c1ccc(-c2cccn3c(=O)cc(C(F)(F)F)nc23)cc1` [Example 2, N-(2,2-difluoroethyl)-N-methyl-4-(4-oxo-2-(trifluoromethyl)-4H-pyrido[1,2-a]pyrimidin-9-yl)benzamide], the activation at 30 µM was 103%.

Values taken from patent publication US11407748B2, “Substituted pyrido[1,2-a]pyrimidines and pyrazino[1,2-a]pyrimidines for enhancing AMPA receptor function” (Takeda Pharmaceutical Company Limited, priority 2017, dated 2022).
